One assay deals with L7 murine fibroblasts. To be noted: Bayne et al.; cited from earlier work.
A further assay has as its system dwarf rats. Description: Long-term administration to GH-deficient dwarf (dw/dw) rats. The class given is in vivo, rat. Particulars: 150 μg of IGF-I agonist as printed.
The test system of assay [1] is endogenous IGFBPs present in human serum. Description: Displacement of ^125I-IGF-I from IGFBPs in human serum (FPLC-SEC). The class given is binding. To be noted: normal human serum, IGF mutant 40 μg/ml, mean ± SD, n = 3. How it is done: To determine if the IGF mutant could displace IGF-I from endogenous IGFBPs present in human serum, the following experiment was performed. Radiolabeled rhIGF-I (^125-IGF-I) was incubated with normal human serum samples at a concentration of 33 ng/ml for 16 hr at 4° C. to allow for the formation of […] complexes. […] The samples (n=3) were then analyzed by FPLC size-exclusion chromatography (FPLC-SEC) to determine the relative size and amounts of the ^125I-IGF-I:IGFBP complexes.
Data are expressed as cpm per fraction (n=1).
This Example tests an IGFBP-3-specific peptide, BP15, for its ability to block the binding of ^125I-IGF-I in human serum. Human serum was incubated with ^125I-IGF-I±the peptide and the amount of tracer bound to IGFBPs via size-exclusion chromatography was measured.

For the next assay, the target named is IGFBP-3 (Homo sapiens, UniProt P17936). The assay is described as follows: ^125I-IGF-I competitive binding plate assay, IGFBP-3. Particulars: displacement of ^125I-IGF-I, FIG. 7. How it is done: (§1) The mutant (Leu^24,Ala^31)hIGF-I was also tested for its ability to displace radio-labeled rhIGF-I off the IGFBPs in a competitive binding assay. This assay involves coating recombinant human (rh) IGFBP-1 or rhIGFBP-3 (160 ng/ml) onto 96-well plates overnight, blocking the plates for one hour with 0.5% BSA, adding rhIGF-I (250-0.08 ng/ml) or (Leu^24,Ala^31)hIGF-I for 1 hour, then adding 20,000 cpm of ^125I-IGF-I and incubating for 2 hours before washing and counting.
(§2) As an additional assay of peptide activity, several peptides were tested in an assay using ^125I-labeled IGF-I to measure inhibition of IGFBP binding, as described in Example 1 (Assay 3). Serial dilutions of peptide were added to an IGFBP-1 or an IGFBP-3 plate. Thereafter, ^125I-labeled IGF-I was added and the plates were incubated for 2 hours. The plates were then washed and counted to determine the amount of bound IGF-I.

In assay [2] the target is T1, human Type 1 IGF receptor (Homo sapiens, UniProt P08069).
T1 construct: host or cells: MCF-7
The assay is described as follows: KIRA for phosphorylation of the human Type 1 receptor in MCF-7 cells. The class given is cell-based. To be noted: substance alone.

The target in assay [3] is T2, recombinant human (rh) IGFBP-1 (Homo sapiens, UniProt P08833).
T2 sequence (P08833 26-259): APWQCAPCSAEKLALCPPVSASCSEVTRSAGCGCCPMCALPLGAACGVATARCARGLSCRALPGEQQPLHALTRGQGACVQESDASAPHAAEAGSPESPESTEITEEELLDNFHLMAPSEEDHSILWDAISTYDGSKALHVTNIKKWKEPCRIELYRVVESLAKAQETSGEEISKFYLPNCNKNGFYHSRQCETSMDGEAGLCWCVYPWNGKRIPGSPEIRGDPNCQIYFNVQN
Description: ^125I-IGF-I competitive binding plate assay, IGFBP-1. Particulars: displacement of ^125I-IGF-I, FIG. 6. As to the method: as §1, §2

T1 sequence (P08069 31-736 limits assumed): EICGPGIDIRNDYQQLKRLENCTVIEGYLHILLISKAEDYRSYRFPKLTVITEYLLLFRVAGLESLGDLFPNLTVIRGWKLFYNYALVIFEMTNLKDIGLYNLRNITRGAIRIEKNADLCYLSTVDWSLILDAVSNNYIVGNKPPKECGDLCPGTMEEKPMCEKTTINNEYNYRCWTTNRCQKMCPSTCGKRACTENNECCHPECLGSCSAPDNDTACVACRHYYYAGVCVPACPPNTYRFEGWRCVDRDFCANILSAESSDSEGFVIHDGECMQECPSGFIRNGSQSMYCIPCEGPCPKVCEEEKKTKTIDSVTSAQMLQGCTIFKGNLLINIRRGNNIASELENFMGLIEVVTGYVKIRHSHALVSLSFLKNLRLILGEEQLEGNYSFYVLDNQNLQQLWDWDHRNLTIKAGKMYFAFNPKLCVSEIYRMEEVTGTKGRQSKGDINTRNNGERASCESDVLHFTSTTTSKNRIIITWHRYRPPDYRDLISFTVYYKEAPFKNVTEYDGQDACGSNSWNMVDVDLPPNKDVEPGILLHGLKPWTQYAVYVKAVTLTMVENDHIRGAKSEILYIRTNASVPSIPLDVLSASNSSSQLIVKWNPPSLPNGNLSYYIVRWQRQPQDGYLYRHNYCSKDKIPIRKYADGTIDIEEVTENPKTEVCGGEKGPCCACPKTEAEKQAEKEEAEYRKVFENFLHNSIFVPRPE
T1 sequence (P08069 741-1367 partner limits assumed): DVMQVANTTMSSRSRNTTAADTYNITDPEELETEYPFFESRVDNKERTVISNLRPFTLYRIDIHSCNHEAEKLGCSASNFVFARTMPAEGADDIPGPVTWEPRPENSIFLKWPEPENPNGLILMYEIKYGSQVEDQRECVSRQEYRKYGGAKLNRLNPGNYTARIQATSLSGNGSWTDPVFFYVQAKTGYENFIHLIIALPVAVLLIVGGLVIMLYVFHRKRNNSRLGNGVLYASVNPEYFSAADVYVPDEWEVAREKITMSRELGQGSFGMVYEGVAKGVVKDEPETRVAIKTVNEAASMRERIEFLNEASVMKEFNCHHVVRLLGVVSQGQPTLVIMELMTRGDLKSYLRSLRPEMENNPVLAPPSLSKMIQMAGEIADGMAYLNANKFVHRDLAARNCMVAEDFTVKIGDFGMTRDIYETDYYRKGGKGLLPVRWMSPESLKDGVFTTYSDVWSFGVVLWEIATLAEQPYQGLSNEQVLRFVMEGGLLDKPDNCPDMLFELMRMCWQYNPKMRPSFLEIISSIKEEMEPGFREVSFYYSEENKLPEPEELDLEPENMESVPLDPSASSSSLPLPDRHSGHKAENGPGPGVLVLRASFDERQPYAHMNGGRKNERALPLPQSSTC
Sequence of IGFBP-3 (P17936 28-291): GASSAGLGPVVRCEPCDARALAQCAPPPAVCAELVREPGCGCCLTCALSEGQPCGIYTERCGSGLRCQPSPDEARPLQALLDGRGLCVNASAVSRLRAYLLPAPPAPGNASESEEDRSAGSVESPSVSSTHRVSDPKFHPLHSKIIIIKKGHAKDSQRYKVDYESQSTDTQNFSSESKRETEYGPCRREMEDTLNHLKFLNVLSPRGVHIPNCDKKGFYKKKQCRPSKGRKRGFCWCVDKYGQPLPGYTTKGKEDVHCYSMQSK

(Leu^24,Ala^31)hIGF-I: the “reduction in activity, ^3H thymidine incorporation” value in the assay with L7 murine fibroblasts was “more than 200 fold”. In addition, the “total IGF-I (rat and human) in blood” value in the assay on dwarf rats is listed as “rise in total IGF-I”. Also, the “Free (˜7 kDa) ^125I-IGF-I, percent of total radioactivity” value in assay [1] (0 hr) turned out to be 9.3 ± 2.3%; in assay [1] (0.5 hr), 38.2 ± 3.7%; in assay [1] (3 hr), 61.9 ± 2.6%; in assay [1] (24 hr), 81.9 ± 0.5%. Moreover, the “^125I-IGF-I in ˜44 kDa range, percent of total radioactivity” value in assay [1] (0 hr) is recorded as 60.5 ± 0.8%; in assay [1] (0.5 hr) it was 37.3 ± 2.9%; in assay [1] (3 hr), 27.8 ± 1.5%; in assay [1] (24 hr) it was 12.6 ± 0.4%. The “^125I-IGF-I in ˜150 kDa range, percent of total radioactivity” value is listed as 30.3 ± 1.4% in assay [1] (0 hr), 24.4 ± 0.8% in assay [1] (0.5 hr), 10.3 ± 1.1% in assay [1] (3 hr) and 5.5 ± 0.1% in assay [1] (24 hr). Besides, the “binding affinity to recombinant IGFBP-3” value with IGFBP-3 is “affinity only several fold different from that of wild-type hIGF-I”. For the same substance, in assay [2], the “phosphorylation of the IGF-I receptor (KIRA)” value is reported as “did not cause any change in receptor phosphorylation”. Besides, the “binding affinity to recombinant IGFBP-1” value in assay [3] is recorded as “affinity only several fold different from that of wild-type hIGF-I”.

The values are drawn from patent publication US6632794B1, “Insulin-like growth factor agonist molecules” (Genentech, Inc., priority 1997, dated 2003).
